From the NIST ThermoML archive (doi:10.1016/j.fluid.2012.11.006)

O=C(O)c1cc(Br)ccc1Br [2,5-dibromobenzoic acid]
Details	vapor or sublimation pressure [kPa]
346.8 K, Crystal, Torsion effusion method	4.7e-05
348.6 K, Crystal, Torsion effusion method	5.7e-05
350 K, Crystal, Torsion effusion method	7.6e-05
350.2 K, Crystal, Torsion effusion method	7.6e-05
352.2 K, Crystal, Torsion effusion method	9.5e-05
353 K, Crystal, Torsion effusion method	0.000114
353.5 K, Crystal, Torsion effusion method	0.000114
353.6 K, Crystal, Torsion effusion method	0.000114
354.3 K, Crystal, Torsion effusion method	0.000133
354.8 K, Crystal, Torsion effusion method	0.000133
356.1 K, Crystal, Torsion effusion method	0.000171
356.2 K, Crystal, Torsion effusion method	0.000152
356.8 K, Crystal, Torsion effusion method	0.000171
357.3 K, Crystal, Torsion effusion method	0.000189
357.8 K, Crystal, Torsion effusion method	0.000208
358.3 K, Crystal, Torsion effusion method	0.000208
359.2 K, Crystal, Torsion effusion method	0.000246
359.6 K, Crystal, Torsion effusion method	0.000227
360.2 K, Crystal, Torsion effusion method	0.000246
360.4 K, Crystal, Torsion effusion method	0.000265
361.5 K, Crystal, Torsion effusion method	0.000303
361.7 K, Crystal, Torsion effusion method	0.000303
362.4 K, Crystal, Torsion effusion method	0.00036
362.5 K, Crystal, Torsion effusion method	0.000322
363 K, Crystal, Torsion effusion method	0.000379
363.8 K, Crystal, Torsion effusion method	0.000388
364.6 K, Crystal, Torsion effusion method	0.000493
364.7 K, Crystal, Torsion effusion method	0.000474
365.6 K, Crystal, Torsion effusion method	0.000474
366.2 K, Crystal, Torsion effusion method	0.000493
367.3 K, Crystal, Torsion effusion method	0.000606
367.6 K, Crystal, Torsion effusion method	0.000701
367.7 K, Crystal, Torsion effusion method	0.000682
369.1 K, Crystal, Torsion effusion method	0.000777
369.7 K, Crystal, Torsion effusion method	0.000834
370.5 K, Crystal, Torsion effusion method	0.000853
370.7 K, Crystal, Torsion effusion method	0.000947
371.2 K, Crystal, Torsion effusion method	0.001023
372.3 K, Crystal, Torsion effusion method	0.001099
373 K, Crystal, Torsion effusion method	0.001175
373.5 K, Crystal, Torsion effusion method	0.001213
373.7 K, Crystal, Torsion effusion method	0.00127
375.4 K, Crystal, Torsion effusion method	0.001516
376.8 K, Crystal, Torsion effusion method	0.001914
376.9 K, Crystal, Torsion effusion method	0.001762
440.2 K, Liquid, non-isothermal thermogravimetric	0.643
440.5 K, Liquid, non-isothermal thermogravimetric	0.663
441.3 K, Liquid, non-isothermal thermogravimetric	0.731
442.1 K, Liquid, non-isothermal thermogravimetric	0.732
443.1 K, Liquid, isothermal thermogravimetric	0.819
444 K, Liquid, isothermal thermogravimetric	0.821
444.1 K, Liquid, isothermal thermogravimetric	0.835
444.1 K, Liquid, non-isothermal thermogravimetric	0.844
444.6 K, Liquid, non-isothermal thermogravimetric	0.841
444.8 K, Liquid, isothermal thermogravimetric	0.822
445.4 K, Liquid, non-isothermal thermogravimetric	0.919
446.3 K, Liquid, non-isothermal thermogravimetric	0.924
447 K, Liquid, isothermal thermogravimetric	1.031
448.1 K, Liquid, isothermal thermogravimetric	1.01
448.3 K, Liquid, isothermal thermogravimetric	1.044
448.3 K, Liquid, non-isothermal thermogravimetric	1.04
448.7 K, Liquid, isothermal thermogravimetric	1.012
448.8 K, Liquid, non-isothermal thermogravimetric	1.066
449.2 K, Liquid, non-isothermal thermogravimetric	1.146
